Source: paper PMC12423301, “Astrocytic monoamine oxidase B (MAOB)–gamma-aminobutyric acid (GABA) axis as a molecular brake on repair following spinal cord injury” (Signal Transduction and Targeted Therapy, 2025)
Like-named read-outs stand apart in the source and are kept apart here.

Tests used:
[1] = GLP toxicity tests in rats
[2] = test system: white matter stroke rat model; settings: cited from earlier work
in vivo = settings: Sprague-Dawley, rat
[3] = Blood chemistry and liver function in monkey SCI model; assay type: in vivo, cynomolgus macaques (Macaca fascicularis)
Protocol: Blood samples were collected from the animals via the radial or femoral vein at three time points: 2 days, 2 weeks, and 5 weeks post-injury. All the animals were fasted for approximately 16 h prior to each collection, with water provided ad libitum. Approximately 2.0 mL of blood was drawn and placed into tubes without anticoagulant and left at room temperature for at least 90 min. The samples were then centrifuged at 3000 rpm for 10 min at room temperature to separate the serum. Finally, the serum samples were analyzed for creatinine (CREA), alkaline phosphatase (ALP), gamma-glutamyl transpeptidase (GGT), total bilirubin (TBIL), ALB, ALT, and aspartate aminotransferase (AST) levels. These biochemical parameters were measured using a TBA 120FR chemistry analyzer (Toshiba Co.).

[4] = GLP toxicity tests in monkeys
[5] = test system: GABAA receptor-mediated currents from lamina II dorsal horn neurons; experiment: Tonic GABA current recording; assay type: in vivo, rat; settings: SCI + KDS 2w, PI 10w
[6] = Sprague-Dawley, rat, in vivo
[7] = test system: Parkinson’s disease mouse model; settings: cited from earlier work
[8] = Body weight of rats on medicated drinking water; assay type: in vivo, rat
Protocol: (S)-2-(((4’-Trifluoromethylbiphenyl-4-yl)methyl)amino)propanamide methane-sulfonate (KDS2010) was dissolved in distilled water. For SD rats, KDS2010 was administered via the drinking water ad libitum. […] To evaluate dose-dependent effects, additional groups received 20 mg/kg/day or 30 mg/kg/day starting at PI 2 weeks. To achieve consistent exposure across animals, we meticulously monitored the daily water intake and body weight of each rat throughout the study. As shown in the Extended Data (Supplementary Table 1), water consumption was calculated weekly via a formula based on body weight (e.g., d.w = weight × 0.09 at week 0; gradually tapering to weight × 0.075 by weeks 8–9). Importantly, all animals were confirmed to have consumed the entirety of the provided medicated water each day, ensuring full ingestion of the intended dose (10 mg/kg/day for the majority of groups, and 20/30 mg/kg/day for the dose-dependent experiments).

SMILES: CS(=O)(=O)O.C[C@H](NCc1ccc(-c2ccc(C(F)(F)F)cc2)cc1)C(N)=O [KDS2010, (S)-2-(((4’-Trifluoromethylbiphenyl-4-yl)methyl)amino)propanamide methane-sulfonate]
- human equivalent dose (HED) of MTD ([1]; from rat MTD): 6774.2 mg/60kg
- histopathology (kidneys, bladder, testis, epididymis and lungs) ([1]; oral 30, 50, 75 and 100 mg/kg once daily for 4 weeks): histopathological changes
- mortality ([1]; oral 50-200 mg/kg daily for 2 weeks): no deaths
- motor performance [2]: improve motor performance
- MTD (in vivo; po): 700 mg/kg
- NOAEL at 4 weeks (in vivo; female, NOAEL): 30 mg/kg
- NOAEL at 4 weeks (in vivo; female, human equivalent dose (HED) of NOAEL): 4.84 mg/kg
- NOAEL at 4 weeks (in vivo; male, NOAEL): 50 mg/kg/day
- signs of hepatic and muscle stress ([3]; 3 mpk): no signs of stress
- creatine kinase (CK) and alanine transaminase (ALT) levels ([3]; 10 mpk, PI 2w): transient increases
- CK and ALT levels ([3]; 10 mpk, PI 5w): returned to normal
- albumin (ALB) levels ([3]; 10 mpk, PI 5w): moderate reduction
- No-Observed-Adverse-Effect Level (NOAEL) ([3]; monkey SCI model): 3 mpk
- adverse effects ([4]; oral 0, 10, 20, and 40 mg/kg for 4 weeks, 2 weeks recovery): no adverse effects related to the test substance
- mortality ([4]; oral 2 weeks, 100 mg/kg/day male and female, 50 mg/kg/day male): a dying condition or mortality was observed
- tonic GABA current density [5]: significantly recovered
- approximate lethal dose ([6]; iv): ≥ 100 mg/kg
- approximate lethal dose ([6]; po): ≥ 1400 mg/kg
- motor impairment [7]: reverse
- Weekly change in body weight ([8]; SCI/KDS 2w 20mpk, 0w): 0.00 g
- Weekly change in body weight ([8]; SCI/KDS 2w 20mpk, 1w): 29.33 g
- Weekly change in body weight ([8]; SCI/KDS 2w 20mpk, 2w): 13.61 g
- Weekly change in body weight ([8]; SCI/KDS 2w 20mpk, 3w): 54.00 g
- Weekly change in body weight ([8]; SCI/KDS 2w 20mpk, 4s): 16.28 g
- Weekly change in body weight ([8]; SCI/KDS 2w 20mpk, 5s): 31.61 g
- Weekly change in body weight ([8]; SCI/KDS 2w 20mpk, 6s): 12.56 g
- Weekly change in body weight ([8]; SCI/KDS 2w 20mpk, 7w): 24.17 g
- Weekly change in body weight ([8]; SCI/KDS 2w 20mpk, 8w): 13.00 g
- Weekly change in body weight ([8]; SCI/KDS 2w 20mpk, 9w): 10.89 g
- Weekly change in body weight ([8]; SCI/KDS 2w 30mpk, 0w): 0.00 g
- Weekly change in body weight ([8]; SCI/KDS 2w 30mpk, 1w): 34.43 g
- Weekly change in body weight ([8]; SCI/KDS 2w 30mpk, 2w): 10.86 g
- Weekly change in body weight ([8]; SCI/KDS 2w 30mpk, 3w): 39.90 g
- Weekly change in body weight ([8]; SCI/KDS 2w 30mpk, 4s): 17.36 g
- Weekly change in body weight ([8]; SCI/KDS 2w 30mpk, 5s): 22.40 g
- Weekly change in body weight ([8]; SCI/KDS 2w 30mpk, 6s): 10.84 g
- Weekly change in body weight ([8]; SCI/KDS 2w 30mpk, 7w): 19.91 g
- Weekly change in body weight ([8]; SCI/KDS 2w 30mpk, 8w): 17.56 g
- Weekly change in body weight ([8]; SCI/KDS 2w 30mpk, 9w): 3.43 g
- Weekly change in body weight ([8]; SCI/KDS 2w, 0w): 0.00 g
- Weekly change in body weight ([8]; SCI/KDS 2w, 1w): 47.67 g
- Weekly change in body weight ([8]; SCI/KDS 2w, 2w): 16.00 g
- Weekly change in body weight ([8]; SCI/KDS 2w, 3w): 33.67 g
- Weekly change in body weight ([8]; SCI/KDS 2w, 4s): 31.00 g
- Weekly change in body weight ([8]; SCI/KDS 2w, 5s): 31.33 g
- Weekly change in body weight ([8]; SCI/KDS 2w, 6s): 16.67 g
- Weekly change in body weight ([8]; SCI/KDS 2w, 7w): 18.33 g
- Weekly change in body weight ([8]; SCI/KDS 2w, 8w): 11.67 g
- Weekly change in body weight ([8]; SCI/KDS 2w, 9w): 7.17 g
- Weekly change in body weight ([8]; SCI/KDS 2w, 10w): 14.50 g
- Weekly change in body weight ([8]; SCI/KDS 2w, 11w): 8.00 g
- Weekly change in body weight ([8]; SCI/KDS 2w, 12w): 1.50 g
- Weekly change in body weight ([8]; SCI/KDS 2w, 13w): 7.50 g
- Weekly change in body weight ([8]; SCI/KDS 6w, 0w): 0.00 g
- Weekly change in body weight ([8]; SCI/KDS 6w, 1w): 24.00 g
- Weekly change in body weight ([8]; SCI/KDS 6w, 2w): 27.50 g
- Weekly change in body weight ([8]; SCI/KDS 6w, 3w): 36.00 g
- Weekly change in body weight ([8]; SCI/KDS 6w, 4s): 31.50 g
- Weekly change in body weight ([8]; SCI/KDS 6w, 5s): 14.50 g
- Weekly change in body weight ([8]; SCI/KDS 6w, 6s): 13.00 g
- Weekly change in body weight ([8]; SCI/KDS 6w, 7w): 17.50 g
- Weekly change in body weight ([8]; SCI/KDS 6w, 8w): 7.00 g
- Weekly change in body weight ([8]; SCI/KDS 6w, 9w): 13.00 g
- Weekly change in body weight ([8]; SCI/KDS 6w, 10w): 11.00 g
- Weekly change in body weight ([8]; SCI/KDS 6w, 11w): 8.00 g
- Weekly change in body weight ([8]; SCI/KDS 6w, 12w): 7.00 g
- Weekly change in body weight ([8]; SCI/KDS 6w, 13w): 8.00 g
- Weekly change in body weight ([8]; SCI/KDS 1d, 0w): 0.00 g
- Weekly change in body weight ([8]; SCI/KDS 1d, 1w): -44.55 g
- Weekly change in body weight ([8]; SCI/KDS 1d, 2w): 21.82 g
- Weekly change in body weight ([8]; SCI/KDS 1d, 3w): 23.03 g
- Weekly change in body weight ([8]; SCI/KDS 1d, 4s): 50.91 g
- Weekly change in body weight ([8]; SCI/KDS 1d, 5s): 28.03 g
- Weekly change in body weight ([8]; SCI/KDS 1d, 6s): 16.82 g
- Weekly change in body weight ([8]; SCI/KDS 1d, 7w): 19.85 g
- Weekly change in body weight ([8]; SCI/KDS 1d, 8w): 14.70 g
- Weekly change in body weight ([8]; SCI/KDS 1d, 9w): 7.88 g
- Weekly change in body weight ([8]; Sham/KDS 2w, 0w): 0.00 g
- Weekly change in body weight ([8]; Sham/KDS 2w, 1w): 33.00 g
- Weekly change in body weight ([8]; Sham/KDS 2w, 2w): 17.00 g
- Weekly change in body weight ([8]; Sham/KDS 2w, 3w): 32.00 g
- Weekly change in body weight ([8]; Sham/KDS 2w, 4s): 31.00 g
- Weekly change in body weight ([8]; Sham/KDS 2w, 5s): 21.00 g
- Weekly change in body weight ([8]; Sham/KDS 2w, 6s): 8.00 g
- Weekly change in body weight ([8]; Sham/KDS 2w, 7w): 25.00 g
- Weekly change in body weight ([8]; Sham/KDS 2w, 8w): 10.00 g
- Weekly change in body weight ([8]; Sham/KDS 2w, 9w): 10.00 g
- Weekly change in body weight ([8]; Sham/KDS 1d, 0w): 0.00 g
- Weekly change in body weight ([8]; Sham/KDS 1d, 1w): 26.67 g
- Weekly change in body weight ([8]; Sham/KDS 1d, 2w): 3.33 g
- Weekly change in body weight ([8]; Sham/KDS 1d, 3w): 30.00 g
- Weekly change in body weight ([8]; Sham/KDS 1d, 4s): 50.00 g
- Weekly change in body weight ([8]; Sham/KDS 1d, 5s): 25.00 g
- Weekly change in body weight ([8]; Sham/KDS 1d, 6s): 21.67 g
- Weekly change in body weight ([8]; Sham/KDS 1d, 7w): 18.33 g
- Weekly change in body weight ([8]; Sham/KDS 1d, 8w): 8.33 g
- Weekly change in body weight ([8]; Sham/KDS 1d, 9w): 23.33 g
